For eleven compounds, IC50, MIC and response vs control in vivo results are on record in US4555572A, “Pyrazolo[3,4,5-kl]acridine compositions and methods for their production and use” (Warner-Lambert Company, priority 1984, dated 1985).

The subject of one assay is HCT-8 cells. Nature of the assay: in vitro proliferating human colon adenocarcinoma (HCA) cell screen, HCT-8. Type of assay: cell-based. As for the experimental part: (a) One test protocol is the in vitro proliferating human colon adenocarcinoma (HCA) cell screen. In this test, HCT-8 cells (HCA cell line received from Yale University) are trypsinized using trypsin-EDTA. A single cell suspension is achieved by passing the cells through a 26 gauge needle with a 20-cc syringe. A cell suspension is prepared using RPMI 1640+10% FCS+50 μg/ml gentamicin sulfate with a cell concentration is approximately 30,000 cells/ml. The cell suspension is dispensed in Linbro 24-well plates; 1 ml/well. The plates are incubated for approximately 48 hours at 37° C. in a 5% CO2 atmosphere. At this time test compounds are added in the appropriate concentration. Five μl of the 200 μg/ml stock solution is added to each well in a primary test. […] of the appropriate dilution is added to each well for a titration test. The plates are reincubated an additional 60 to 65 hours at 37° C. in a 5% CO 2 atmosphere. The cells are lysed using a mix of cationic surfactant, glacial acetic acid, and sodium chloride. Two ml of the lysed cell suspension from each well is added to 8 ml of diluent. The number of nuclei is determined using a Coulter counter (ZBI model), and a percent growth for each drug concentration is calculated. From this, and ID50 (molar concentration of compound that results in 50% inhibition of growth) is determined.

A further assay deals with Alcaligenes viscolactis. Nature of the assay: in vitro antibacterial (ABMF) microdilution susceptibility test. The assay is classed as cell-based. To be noted: read-out: ABMF Test M.I.C. A. visc. An excerpt: (§1) (d) Still another test protocol is the in vitro antibacterial (ABMF) test which is a recognized standard microdilution susceptibility procedure in Mueller-Hinton broth against gram-positive and gram-negative bacterial test organisms. The procedure is a modification of a state-of-the-art procedure reported in Manual of Clinical Microbiology, Lennette, E. H., ed., by Barry, A. L. and C. Thornsberry at pages 463-474 and by Gavan, T. L. and A. L. Barry at pages 459-462, American Society for Microbiology, Washington, 1980.
(§2) In the test, a given bacterial culture is used to inoculate individaul test wells of microdilution trays containing growth medium and test compound, the latter in a microdilution series: 1000, 333, 111, 37, 12, 4, 1.4, and 0.46 micrograms per milliliter. […] For convenience, values are reported for Escherichia coli, Branhamella catarrhalis, Alcaligenes viscolactis, Streptococcus pneumoniae, and Bacillus cereus
A general note: Broth dilution looks for growth in wells or tubes with falling amounts of substance.

The next assay deals with Bacillus cereus. The description is as above. Type of assay: cell-based. To be noted: read-out: ABMF Test M.I.C. B. cere.
Excerpt: as §1, §2

The test system of another assay is Branhamella catarrhalis. The assay is described as above. To be noted: Moraxella catarrhalis, read-out: ABMF Test M.I.C. B. cata. Type of assay: cell-based.
Excerpt: as §1, §2

In the next assay the test system is Escherichia coli. The assay is described as above. Particulars: read-out: ABMF Test M.I.C. E. coli. The assay is classed as cell-based.
Excerpt: as §1, §2

In a further assay the test system is Streptococcus pneumoniae. The assay is described as above. Particulars: read-out: ABMF Test M.I.C. S. pneu. Type of assay: cell-based.
Excerpt: as §1, §2

Assay [1] has as its system lymphocytic leukemia P388. Nature of the assay: in vivo lymphocytic leukemia P388 test. Set-up: species or system CD2 F1 mice. Particulars: Mus musculus, P388, ip, 120 h. How it is done: Another test protocol is the in vivo lymphocytic leukemia P388 test. The animals used are either male or female CD2 F1 mice, six or seven animals per test group. The tumor transplant is by intraperitoneal injection of dilute ascitic fluid containing cells of lymphocytic leukemia P388. The test compounds are administered intraperitoneally once daily for five consecutive days at various doses following tumor inoculation. The animals are weighed and survivors are recorded on a regular basis for 30 days. A compound is designated "toxic" if, at a given dose, all animals died prior to four days after the first injection of drug. A ratio of survival time for treated (T)/control (C) animals is calculated. A criterion for efficacy is a ratio T/C times 100 greater than or equal to 125. See Cancer Chemotherapy Reports, Part 3, 3, 1 (1972) for a comprehensive discussion of the protocol.

[2] abbreviates: HCT-8 cells, 60 to 65 hours, ED50, read-out: HCA ED50 Avg.
The mark [3] stands for this setting: Mueller-Hinton broth, 37° C., 16-24 hours.
[4] abbreviates: 6.25 mg/kg, intraperitoneally once daily for five days, read-out: P388 in vivo T/C × 100.
Setting [5] is: intraperitoneally once daily for five days, read-out: P388 in vivo T/C × 100.
Where [6] appears, read: 1.56 mg/kg, intraperitoneally once daily for five days, read-out: P388 in vivo T/C × 100.
Setting [7] is: 3.12 mg/kg, intraperitoneally once daily for five days, read-out: P388 in vivo T/C × 100.

Structures can show the parent of a compound that is named as a salt. Where two headings read alike, the source gives them in different places.

With `CCOc1ccc2c(c1)-c1nn(CCN(CC)CC)c3ccc([N+](=O)[O-])c(c13)N2.CS(=O)(=O)O` [Example 18, N,N-Diethyl-9-ethoxy-5-nitropyrazolo[3,4,5-kl]acridine-2(6H)-ethanamine, methanesulfonate (1:1)], the IC50 with HCT-8 cells (setting [2]) came out at 110 nM. Besides, the MIC was less than 0.46 µg/mL in the assay with Alcaligenes viscolactis (setting [3]); 12.3 µg/mL in the assay on Bacillus cereus (setting [3]); 1.4 µg/mL in the assay with Branhamella catarrhalis (setting [3]); 12.3 µg/mL with Escherichia coli (setting [3]); less than 0.46 µg/mL in the assay on Streptococcus pneumoniae (setting [3]). In addition, in assay [1] (3.13 mg/kg, intraperitoneally once daily for five days, read-out: P388 in vivo T/C × 100), the response vs control in vivo at 3.13 mg/kg is 135%. Also, the response vs control in vivo at 6.25 mg/kg in assay [1] (setting [4]) came to 169%. Also, the response vs control in vivo at 12.5 mg/kg in assay [1] (setting [5]) was determined as 201%.
Turning to `CCCC(=O)Oc1ccc2c(c1)-c1nn(CCN(CC)CC)c3ccc([N+](=O)[O-])c(c13)N2` [Example 29, [2-[2-(Diethylamino)ethyl]-2,6-dihydro-5-nitropyrazolo[3,4,5-kl]acridin-9-yl]butanoic ester, methanesulfonate (salt) (1:1)], the MIC in the assay on Alcaligenes viscolactis (setting [3]) was less than 0.46 µg/mL; in the assay on Bacillus cereus (setting [3]) it was 4.1 µg/mL; with Branhamella catarrhalis (setting [3]), 1.4 µg/mL; in the assay on Escherichia coli (setting [3]), 333 µg/mL; in the assay with Streptococcus pneumoniae (setting [3]), less than 0.46 µg/mL. In addition, the response vs control in vivo at 6.25 mg/kg in assay [1] (setting [4]) amounted to 252%.
On to `CCCCOc1ccc2c(c1)-c1nn(CCNCCO)c3ccc([N+](=O)[O-])c(c13)N2` [Example 41, 2-[[2-(9-Butoxy-5-nitropyrazolo[3,4,5-kl]acridin-2(6H)-yl)ethyl]amino]ethanol, methanesulfonate, hemihydrate], for which the IC50 in the assay on HCT-8 cells (setting [2]) was 340 nM. For the same compound, the MIC in the assay on Alcaligenes viscolactis (setting [3]) was less than 0.46 µg/mL; with Bacillus cereus (setting [3]), 12.3 µg/mL; in the assay on Branhamella catarrhalis (setting [3]) it was 1.4 µg/mL; in the assay with Escherichia coli (setting [3]), 3.7 µg/mL; in the assay with Streptococcus pneumoniae (setting [3]) it was 12.3 µg/mL. In assay [1] (setting [6]), the response vs control in vivo at 1.56 mg/kg is 141%. In addition, in assay [1] (setting [7]), the response vs control in vivo at 3.12 mg/kg is 147%. Moreover, the response vs control in vivo at 6.25 mg/kg in assay [1] (setting [4]) was determined as 159%. In assay [1] (setting [5]), the response vs control in vivo at 12.5 mg/kg came out at 174%.
Turning to `CCN(CC)CCn1nc2c3c(c([N+](=O)[O-])ccc31)Nc1ccc(OC(C)=O)cc1-2` [Example 27, 2-[2-(Diethylamino)ethyl]-2,6-dihydro-5-nitropyrazolo[3,4,5-kl]acridin-9-ol, acetate (ester), methanesulfonate (salt) (1:1)], in the assay on HCT-8 cells (setting [2]), the IC50 was 5.3 nM. Moreover, the MIC in the assay with Alcaligenes viscolactis (setting [3]) is 0.46 µg/mL; in the assay with Bacillus cereus (setting [3]), 4.1 µg/mL; in the assay on Branhamella catarrhalis (setting [3]), 0.46 µg/mL; in the assay on Escherichia coli (setting [3]), 12.3 µg/mL; with Streptococcus pneumoniae (setting [3]), 1.4 µg/mL. Besides, the response vs control in vivo at 1.56 mg/kg in assay [1] (setting [6]) was 158%. For the same compound, in assay [1] (setting [7]), the response vs control in vivo at 3.12 mg/kg was determined as 218%. Also, the response vs control in vivo at 6.25 mg/kg in assay [1] (setting [4]) amounted to 165%.
For `CCCCOc1ccc2c(c1)-c1nn(CCN(CC)CC)c3ccc([N+](=O)[O-])c(c13)N2` [Example 20, 9-Butoxy-N,N-diethyl-5-nitropyrazolo[3,4,5-kl]acridine-2(6H)-ethanamine, methanesulfonate], the IC50 in the assay with HCT-8 cells (setting [2]) came to 73 nM. For the same compound, in assay [1] (setting [6]), the response vs control in vivo at 1.56 mg/kg was 124%. In assay [1] (setting [7]), the response vs control in vivo at 3.12 mg/kg amounted to 125%. Further, in assay [1] (setting [4]), the response vs control in vivo at 6.25 mg/kg stood at 160%.
On to `CCN(CC)CCn1nc2c3c(c([N+](=O)[O-])ccc31)Nc1ccc(O[Si](C)(C)C(C)(C)C)cc1-2` [Example 26, 9-[[(1,1-Dimethylethyl)dimethylsilyl]oxy]-N,N-diethyl-5-nitropyrazolo[3,4,5-kl]acridine-2(6H)-ethanamine, methanesulfonate (salt) (1:1)], for which, in the assay on HCT-8 cells (HCT-8, read-out: HCA ED50 Avg.), the IC50 stood at 6.4 nM. For the same compound, the MIC is 37 µg/mL in the assay with Alcaligenes viscolactis; more than 1000 µg/mL with Bacillus cereus; more than 1000 µg/mL with Branhamella catarrhalis; more than 1000 µg/mL in the assay on Escherichia coli; more than 1000 µg/mL with Streptococcus pneumoniae. In addition, the response vs control in vivo at 1.56 mg/kg in assay [1] (read-out: P388 in vivo T/C × 100, 1.56 mg/kg, intraperitoneally once daily for five days) was found to be 154%. Further, in assay [1] (read-out: P388 in vivo T/C × 100, 3.12 mg/kg, intraperitoneally once daily for five days), the response vs control in vivo at 3.12 mg/kg amounted to 158%. In addition, in assay [1] (read-out: P388 in vivo T/C × 100, 6.25 mg/kg, intraperitoneally once daily for five days), the response vs control in vivo at 6.25 mg/kg amounted to 211%.
For `CCN(CC)CCn1nc2c3c(c([N+](=O)[O-])ccc31)Nc1ccc(OCc3ccccc3)cc1-2` [Example 11, monomethanesulfonate], the IC50 in the assay with HCT-8 cells (HCT-8 cells, 60 to 65 hours, molar concentration for 50% inhibition of growth, read-out: HCA in vitro ID50 avg.) is 2300 nM. In addition, the response vs control in vivo at 12.5 mg/kg in assay [1] (setting [5]) was 127%. The response vs control in vivo at 25 mg/kg in assay [1] (25 mg/kg, intraperitoneally once daily for five days, read-out: P388 in vivo T/C × 100) was 141%. Moreover, the response vs control in vivo at 50 mg/kg in assay [1] (50 mg/kg, intraperitoneally once daily for five days, read-out: P388 in vivo T/C × 100) was 194%.
`CC[N+]([O-])(CC)CCn1nc2c3c(c([N+](=O)[O-])ccc31)Nc1ccccc1-2` [Example 35, N,N-Diethyl-5-nitropyrazolo[3,4,5-kl]acridine-2(6H)-ethanamine, N-oxide, methanesulfonate salt (5:6), hydrate (4:3)]: the MIC in the assay with Alcaligenes viscolactis (setting [3]) is 4.1 µg/mL; in the assay with Bacillus cereus (setting [3]), more than 1000 µg/mL; with Branhamella catarrhalis (setting [3]), 12.3 µg/mL; in the assay on Escherichia coli (setting [3]), 12.3 µg/mL; in the assay on Streptococcus pneumoniae (setting [3]), 12.3 µg/mL. Besides, the response vs control in vivo at 12.5 mg/kg in assay [1] (setting [5]) is 167%.
For `CCN(CC)CCn1nc2c3c(c([N+](=O)[O-])ccc31)Nc1c(OC)cc(OC)cc1-2` [Example 23, N,N-Diethyl-7,9-dimethoxy-5-nitropyrazolo[3,4,5-kl]acridine-2(6H)-ethanamine, methanesulfonate, hydrate (1:1)], the IC50 in the assay on HCT-8 cells (setting [2]) came to 490 nM. Moreover, the MIC was less than 0.46 µg/mL in the assay with Alcaligenes viscolactis (setting [3]); less than 0.46 µg/mL with Bacillus cereus (setting [3]); 1.4 µg/mL in the assay with Branhamella catarrhalis (setting [3]); 37 µg/mL with Escherichia coli (setting [3]); less than 0.46 µg/mL in the assay with Streptococcus pneumoniae (setting [3]).
Consider `CCN(CC)CCn1nc2c3c(c([N+](=O)[O-])ccc31)Nc1ccc(C)cc1-2` [Example 34, N,N-Diethyl-9-methyl-5-nitropyrazolo[3,4,5-kl]acridine-2(6H)-ethanamine, methanesulfonate (salt) (1:1)], for which the IC50 in the assay on HCT-8 cells (setting [2]) amounted to 790 nM. Besides, the MIC is less than 0.46 µg/mL in the assay on Alcaligenes viscolactis (setting [3]); less than 0.46 µg/mL in the assay on Bacillus cereus (setting [3]); less than 0.46 µg/mL in the assay on Branhamella catarrhalis (setting [3]); 12.3 µg/mL in the assay with Escherichia coli (setting [3]); less than 0.46 µg/mL in the assay with Streptococcus pneumoniae (setting [3]).
As to `CCN(CC)CCn1nc2c([N+](=O)[O-])cc([N+](=O)[O-])c3c2c1-c1cc(OC)ccc1N3.CS(=O)(=O)O` [Example 56, N,N-Diethyl-9-methoxy-3,5-dinitropyrazolo[3,4,5-kl]acridine-1(6H)-ethanamine, methanesulfonate], the MIC is less than 0.46 µg/mL in the assay on Alcaligenes viscolactis; 333 µg/mL with Bacillus cereus; 37 µg/mL in the assay on Branhamella catarrhalis; 1000 µg/mL with Escherichia coli; 12.3 µg/mL in the assay with Streptococcus pneumoniae.
